≈ marks a conversion by molar mass, not a printed value.
Key:
[1] = test system: Colinus virginianus
[2] = test system: Cyprinodon variegatus; details: mortality
[3] = test system: Rattus norvegicus
[4] = test system: Daphnia magna; details: chronic/long-term; duration: 21 days; growth
[5] = test system: Coturnix coturnix; details: acute; duration: 5 days; oral; diet; mortality
[6] = test system: Oncorhynchus mykiss; details: chronic/long-term; duration: 28 days; mortality
[7] = test system: Apis mellifera; details: acute
[8] = test system: Hyalella azteca; details: chronic/long-term; duration: 21 days; mortality
[9] = test system: Pontoscolex corethrurus
[10] = test system: Phasianus sp.; details: short-term; duration: 5 days; oral; feed; mortality

CN(C)C(=O)Nc1ccc(Cl)c(Cl)c1 [Diuron]
LC50 ([1]; acute, duration: 5 days, oral, diet, mortality): 346 mg/kg-day | LD50 ([1]; acute, duration: 14 days, oral, diet, mortality): 1100 mg/kg | NOEC ([1]; reproduction developmental): 24.1 mg/kg-day | LC50 ([2]; acute, duration: 96 hours): 6.7 mg/L (≈ 28.7 µM) | NOEC ([2]; chronic/long-term, duration: 32 days): 1.7 mg/L | LD50 ([3]; acute, mortality): 2000 mg/kg | NOAEL ([3]; chronic): 80 mg/kg-day | LOAEL ([3]; chronic, duration: 2 years, F, hematological): 1.7 mg/kg-day | NOAEL ([3]; chronic, duration: 6 months, hematological): 1.6 mg/kg-day | NOAEL ([3]; chronic, duration: 6 months, oral, hematological): 0.66 mg/kg-day | NOEC [4]: 0.096 mg/L | LC50 [5]: > 5000 mg/kg | NOEC [6]: 0.41 mg/L | LEL ([7]; dermal): > 100 µg/piece | LEL ([7]; oral, unspecified): > 100 µg/piece | NOEC [8]: 0.06 mg/L | LC50 ([9]; acute, mortality): > 798 mg/kg | NOEC ([9]; chronic/long-term): 14.4 mg/kg | LC50 [10]: > 5000 mg/kg

Source: EPA's ToxValDB 9.5 (doi:10.2903/j.efsa.2005.25r)
